Assay results from US8148391B2 (Cephalon, Inc., priority 2006, dated 2012).
Read-outs that look alike come from different tables or passages of the source.

What was measured:
[1] = biological target: T1, baculovirus-expressed ALK (Homo sapiens, UniProt Q9UM73); experiment: ALK Kinase Assay (ELISA-type, time-resolved fluorescence); type: biochemical
T1 construct: host or cells: baculovirus expression system
Procedure, shortened: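 Plates coated with phospholipase C-γ substrate (10 μg/mL in TBS); reaction started with 30 ng/ml ALK and run 15 min at 37° C. Phosphorylated substrate detected with Eu-N1-labeled PT66 antibody. IC50 from sigmoidal variable-slope fit of percent inhibition vs log concentration.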

[2] = biological target: T2, c-Met (cytoplasmic domain) (Homo sapiens, UniProt P08581); experiment: c-Met Kinase Assay (same methods as for ALK, with modifications); type: biochemical
T2 construct: 10 ng/mL c-Met (cytoplasmic domain, Invitrogen Corporation #PV3143); purchased Invitrogen Corporation PV3143
Procedure, shortened: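 Europium-labeled PT66 antibody (Eu-N1) detects substrate phosphorylation on wells coated with phospholipase C-γ at 10 μg/mL. The kinase, the cytoplasmic domain of c-Met at 10 ng/mL, starts the reaction, which proceeds 15 minutes at 37° C.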

[3] = ALK kinase inhibition, 1 μM ATP, read-out: ALK Activity
[4] = c-Met kinase inhibition, 1 μM ATP, read-out: cMet Activity
[5] = 1 μM ATP (Km level), read-out: ALK Activity (ALK Kinase Inhibition, IC50)
[6] = 1 μM ATP (Km level), read-out: cMet Activity (c-Met Kinase Inhibition, IC50)
[7] = 1 μM ATP (Km level), 30 ng/ml ALK, 37° C., 15 minutes, read-out: ALK Activity (ALK kinase inhibition, IC50 class)
[8] = 1 μM ATP (Km level), 10 ng/mL c-Met, read-out: cMet Activity (c-Met kinase inhibition, IC50 class)
[9] = ALK kinase inhibition, 1 μM ATP (Km level), read-out: ALK Activity
[10] = c-Met kinase inhibition, 1 μM ATP (Km level), read-out: cMet Activity

T2 sequence (P08581 956-1390 limits assumed): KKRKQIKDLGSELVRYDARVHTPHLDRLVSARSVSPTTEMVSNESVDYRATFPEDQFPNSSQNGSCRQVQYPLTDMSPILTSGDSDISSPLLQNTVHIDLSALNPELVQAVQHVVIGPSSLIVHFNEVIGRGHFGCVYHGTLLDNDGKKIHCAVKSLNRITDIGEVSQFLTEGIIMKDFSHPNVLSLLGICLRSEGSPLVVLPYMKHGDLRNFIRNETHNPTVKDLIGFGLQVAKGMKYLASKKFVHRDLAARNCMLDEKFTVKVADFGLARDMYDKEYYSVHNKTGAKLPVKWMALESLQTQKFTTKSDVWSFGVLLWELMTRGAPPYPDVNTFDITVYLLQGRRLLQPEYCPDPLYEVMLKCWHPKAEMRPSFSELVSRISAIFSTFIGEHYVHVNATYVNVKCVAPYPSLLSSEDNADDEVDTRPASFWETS
T1 sequence (Q9UM73 19-1620): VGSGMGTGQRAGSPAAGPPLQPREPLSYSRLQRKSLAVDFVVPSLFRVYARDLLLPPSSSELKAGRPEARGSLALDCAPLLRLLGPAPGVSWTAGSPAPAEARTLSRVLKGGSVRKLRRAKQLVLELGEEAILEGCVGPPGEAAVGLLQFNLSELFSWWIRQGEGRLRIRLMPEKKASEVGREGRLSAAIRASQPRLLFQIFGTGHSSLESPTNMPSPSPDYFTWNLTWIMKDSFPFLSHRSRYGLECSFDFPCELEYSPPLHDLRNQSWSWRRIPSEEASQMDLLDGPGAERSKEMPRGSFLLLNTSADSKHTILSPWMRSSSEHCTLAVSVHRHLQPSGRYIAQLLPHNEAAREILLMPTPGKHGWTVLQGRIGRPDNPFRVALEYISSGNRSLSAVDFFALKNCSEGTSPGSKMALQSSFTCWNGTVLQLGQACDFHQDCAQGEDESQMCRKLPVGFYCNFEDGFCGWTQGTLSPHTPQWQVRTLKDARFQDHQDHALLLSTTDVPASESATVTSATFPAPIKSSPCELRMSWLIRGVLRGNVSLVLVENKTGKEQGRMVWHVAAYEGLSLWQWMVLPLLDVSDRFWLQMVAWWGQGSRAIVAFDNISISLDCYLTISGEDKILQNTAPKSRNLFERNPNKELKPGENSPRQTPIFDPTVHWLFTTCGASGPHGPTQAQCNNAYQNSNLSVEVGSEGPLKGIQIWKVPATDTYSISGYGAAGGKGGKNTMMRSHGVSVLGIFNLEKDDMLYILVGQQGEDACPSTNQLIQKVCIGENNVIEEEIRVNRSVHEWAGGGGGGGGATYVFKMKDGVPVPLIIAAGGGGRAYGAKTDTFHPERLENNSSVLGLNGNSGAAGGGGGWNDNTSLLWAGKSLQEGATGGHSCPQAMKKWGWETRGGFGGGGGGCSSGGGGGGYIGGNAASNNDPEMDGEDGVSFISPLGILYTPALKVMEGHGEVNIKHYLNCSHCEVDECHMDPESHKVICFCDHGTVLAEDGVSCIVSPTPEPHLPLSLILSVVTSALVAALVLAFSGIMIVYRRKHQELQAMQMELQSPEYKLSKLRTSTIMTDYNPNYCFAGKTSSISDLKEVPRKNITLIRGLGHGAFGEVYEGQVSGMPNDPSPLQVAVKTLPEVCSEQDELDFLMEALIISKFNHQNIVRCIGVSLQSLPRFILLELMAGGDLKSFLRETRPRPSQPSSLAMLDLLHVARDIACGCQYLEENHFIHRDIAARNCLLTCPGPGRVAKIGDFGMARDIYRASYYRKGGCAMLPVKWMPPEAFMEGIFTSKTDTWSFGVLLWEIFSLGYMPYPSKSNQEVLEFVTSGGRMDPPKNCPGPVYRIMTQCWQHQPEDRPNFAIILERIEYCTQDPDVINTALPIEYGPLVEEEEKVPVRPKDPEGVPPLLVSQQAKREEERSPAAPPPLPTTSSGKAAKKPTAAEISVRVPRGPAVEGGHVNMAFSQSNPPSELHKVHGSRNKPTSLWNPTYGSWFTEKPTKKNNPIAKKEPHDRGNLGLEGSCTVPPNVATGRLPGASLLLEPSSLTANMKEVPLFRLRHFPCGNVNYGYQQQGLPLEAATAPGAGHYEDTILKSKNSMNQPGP

| IC50 [1, 3] | IC50 [2, 4] | IC50 [1, 5] | IC50 [2, 6] | Molecule | also measured |
| --- | --- | --- | --- | --- | --- |
| < 0.1 µM | < 0.1 µM | – | – | CCN1CC(=O)N(CC)c2cc(Nc3ncc(Cl)c(Nc4ccsc4C(=O)NC)n3)ccc2C1 [Example 1856, 3-[5-Chloro-2-(1,4-diethyl-2-oxo-2,3,4,5-tetrahydro-1H-benzo[e][1,4]diazepin-8-ylamino)-pyrimidin-4-ylamino]-thiophene-2-carboxylic acid methylamide] | – |
| – | – | < 0.1 µM | 0.1 to 1 µM | CS(=O)(=O)N[C@@H]1CCCC[C@H]1Nc1nc(Nc2ccc3c(c2)CCC(NCC(F)(F)F)CC3)ncc1Cl (stereo partly drawn) [Example 656, N-((1R,2R)-2-{5-Chloro-2-[7-(2,2,2-trifluoro-ethylamino)-6,7,8,9-tetrahydro-5H-benzocyclohepten-2-ylamino]-pyrimidin-4-ylamino}-cyclohexyl)-methanesulfonamide] | – |
| – | – | < 0.1 µM | 1 to 10 µM | CCN1CCN(CC)c2cc(Nc3ncc(Cl)c(N[C@@H]4[C@H](C(N)=O)[C@H]5C=C[C@@H]4C5)n3)ccc2C1 [Example 714, (2-exo,3-exo)-3-[5-Chloro-2-(1,4-diethyl-2,3,4,5-tetrahydro-1H-benzo[e][1,4]diazepin-8-ylamino)-pyrimidin-4-ylamino]-bicyclo[2.2.1}hept-5-ene-2-carboxylic acid amide] | – |
| 0.1 to 1 µM | < 0.1 µM | – | – | CNC(=O)c1scc(C)c1Nc1nc(Nc2ccc3c(c2)-n2ccnc2CCC3)ncc1Cl [Example 1838, 3-[5-Chloro-2-(5,6-dihydro-4H-3,10b-diaza-benzo[e]azulen-9-ylamino)-pyrimidin-4-ylamino]-4-methyl-thiophene-2-carboxylic acid methylamide] | – |
| < 0.1 µM | > 10 µM | – | – | COc1cc2c(cc1Nc1ncc(Cl)c(N[C@@H]3CCCC[C@H]3NS(C)(=O)=O)n1)NC(=O)CN(Cc1ccccc1)C2 [Example 1651, N-{(1R,2R)-2-[2-(4-Benzyl-7-methoxy-2-oxo-2,3,4,5-tetrahydro-1H-benzo[e][1,4]diazepin-8-ylamino)-5-chloro-pyrimidin-4-ylamino]-cyclohexyl}-methanesulfonamide] | – |
| – | – | – | – | CNC(=O)c1ccccc1Nc1nc(Nc2ccc3c(c2)CNC(=O)CCN3)ncc1Cl [Example 1302, 2-[5-Chloro-2-(4-oxo-1,2,3,4,5,6-hexahydro-benzo[b][1,5]diazocin-8-ylamino)-pyrimidin-4-ylamino]-N-methyl-benzamide] | IC50 [1, 7]: < 0.1 µM; IC50 [2, 8]: < 0.1 µM |
| – | – | < 0.1 µM | 0.1 to 1 µM | CNC(=O)C1C2C=CC(C2)C1Nc1nc(Nc2ccc3c(c2)CCC(O)CC3)ncc1Cl (stereo not drawn) [Example 625, (2-exo-3-exo)-3-[5-Chloro-2-(7-hydroxy-6,7,8,9-tetrahydro-5H-benzocyclohepten-2-ylamino)-pyrimidin-4-ylamino]-bicyclo[2.2.1]hept-5-ene-2-carboxylic acid methylamide] | – |
| – | – | – | – | CCCNC(=O)c1ccccc1Nc1nc(Nc2ccc3c(c2)CCN(CCOC)CC3)ncc1Cl [Example 1023, 2-{5-Chloro-2-[3-(2-methoxy-ethyl)-2,3,4,5-tetrahydro-1H-benzo[d]azepin-7-ylamino]-pyrimidin-4-ylamino}-N-propyl-benzamide] | IC50 [1, 7]: < 0.1 µM; IC50 [2, 8]: 0.1 to 1 µM |
| < 0.1 µM | 0.1 to 1 µM | – | – | COc1cc2c(cc1Nc1ncc(Cl)c(Nc3ccccc3S(=O)(=O)N3CC[C@@H](O)C3)n1)CCN(C[C@H](C)O)CC2 [Example 1554, (R)-1-(2-{5-Chloro-2-[3-((S)-2-hydroxy-propyl)-8-methoxy-2,3,4,5-tetrahydro-1H-3-benzazepin-7-ylamino]-pyrimidin-4-ylamino}-benzenesulfonyl)-pyrrolidin-3-ol] | – |
| 0.1 to 1 µM | < 0.1 µM | – | – | CCN1C(=O)CN(CCO)Cc2ccc(Nc3ncc(Cl)c(Nc4c(F)cccc4C(=O)NC)n3)cc21 [Example 1873, 2-{5-Chloro-2-[1-ethyl-4-(2-hydroxy-ethyl)-2-oxo-2,3,4,5-tetrahydro-1H-benzo[e][1,4]diazepin-8-ylamino]-pyrimidin-4-ylamino}-3-fluoro-N-methyl-benzamide] | – |
| 0.1 to 1 µM | > 10 µM | – | – | COc1cc(N2CCOCC2)ccc1Nc1nc(Nc2ccc3c(c2)NCCCC3(C)C)ncc1Cl [Example 1614, 5-Chloro-N*2*-(5,5-dimethyl-2,3,4,5-tetrahydro-1H-benzo[b]azepin-8-yl)-N*4*-(2-methoxy-4-morpholin-4-yl-phenyl)-pyrimidine-2,4-diamine] | – |
| – | – | – | – | COCCN1CCc2ccc(Nc3ncc(Cl)c(N[C@@H]4CCC[C@H](N(CC#N)S(C)(=O)=O)C4)n3)cc2CC1 (relative stereo) [Example 1386, rel-N-((1S,3R)-3-{5-Chloro-2-[3-(2-methoxy-ethyl)-2,3,4,5-tetrahydro-1H-benzo[d]azepin-7-ylamino]-pyrimidin-4-ylamino}-cyclohexyl)-N-cyanomethyl-methanesulfonamide] | IC50 [1, 7]: 0.1 to 1 µM; IC50 [2, 8]: 1 to 10 µM |
| – | – | 0.1 to 1 µM | > 10 µM | CCN1CC(=O)N(C)c2cc(Nc3ncc(Cl)c(Nc4ccc(OC)c(CNCCO)c4)n3)c(OC)cc2C1 [Example 749, 8-(5-Chloro-4-{3-[(2-hydroxy-ethylamino)-methyl]-4-methoxy-phenylamino}-pyrimidin-2-ylamino)-4-ethyl-7-methoxy-1-methyl-1,3,4,5-tetrahydro-benzo[e][1,4]diazepin-2-one] | – |
| 0.1 to 1 µM | < 0.1 µM | – | – | Cc1nnc(-c2ccccc2Nc2nc(Nc3ccc4c(c3)CCOC(=O)N4C)ncc2Cl)s1 [Example 1494, 2-{5-Chloro-4-[2-(5-methyl-[1,3,4]thiadiazol-2-yl)-phenylamino]-pyrimidin-2-ylamino}-5-methyl-8,9-dihydro-5H-7-oxa-5-aza-benzocyclohepten-6-one] | – |
| – | – | – | – | CNC(=O)c1ccccc1Nc1nc(Nc2cc3c(cc2OC)CCN(CC(=O)N(C)C)CC3)ncc1Cl [Example 259, 2-[5-Chloro-2-(3-dimethylcarbamoylmethyl-8-methoxy-2,3,4,5-tetrahydro-1H-benzo[d]azepin-7-ylamino)-pyrimidin-4-ylamino]-N-methyl-benzamide] | IC50 [1, 9]: < 0.1 µM; IC50 [2, 10]: 0.1 to 1 µM |
| – | – | < 0.1 µM | > 10 µM | COc1cc2c(cc1Nc1ncc(Cl)c(N[C@H]3[C@@H](C(N)=O)[C@@H]4C=C[C@H]3C4)n1)CCN(CC(F)F)CC2 (relative stereo) [Example 763, (2-exo,3-exo)-3-{5-Chloro-2-[3-(2,2-difluoro-ethyl)-8-methoxy-2,3,4,5-tetrahydro-1H-benzo[d]azepin-7-ylamino]-pyrimidin-4-ylamino}-bicyclo[2.2.1]hept-5-ene-2-carboxylic acid amide] | – |
| – | – | – | – | COc1cc2c(cc1Nc1ncc(Cl)c(Nc3ccc(N(C)C)cc3OC)n1)CCN(CCS(C)(=O)=O)CC2 [Example 1167, 5-Chloro-N*4*-(4-dimethylamino-2-methoxy-phenyl)-N*2*-[3-(2-methanesulfonyl-ethyl)-8-methoxy-2,3,4,5-tetrahydro-1H-benzo[d]azepin-7-yl]-pyrimidine-2,4-diamine] | IC50 [1, 7]: < 0.1 µM; IC50 [2, 8]: > 10 µM |
| < 0.1 µM | < 0.1 µM | – | – | CC(=O)NC1CC(C)(C)c2ccc(Nc3ncc(Cl)c(Nc4c(F)cccc4C(=O)NCC#N)n3)cc2NC1=O (stereo not shown) [Example 1636, 2-[2-(3-Acetylamino-5,5-dimethyl-2-oxo-2,3,4,5-tetrahydro-1H-benzo[b]azepin-8-ylamino)-5-chloro-pyrimidin-4-ylamino]-N-cyanomethyl-3-fluoro-Benzamide] | – |
| – | – | – | – | CN1C(=O)CCCc2ccc(Nc3ncc(Cl)c(NC4C5C=CC(C5)C4C(N)=O)n3)cc21 (stereo not drawn) [Example 110, (2-exo,3-exo)-3-[5-Chloro-2-(1-methyl-2-oxo-2,3,4,5-tetrahydro-1H-benzo[b]azepin-8-ylamino)pyrimidin-4-ylamino]-bicyclo[2.2.1]hept-5-ene-2-carboxylic acid amide] | IC50 [1, 9]: < 0.1 µM; IC50 [2, 10]: 0.1 to 1 µM |
| – | – | – | – | CCN1C(=O)CCCc2c1ccc(Nc1ncc(Cl)c(Nc3ccccc3-n3cccn3)n1)c2OC [Example 1319, 7-[5-Chloro-4-(2-pyrazol-1-yl-phenylamino)-pyrimidin-2-ylamino]-1-ethyl-6-methoxy-1,3,4,5-tetrahydro-benzo[b]azepin-2-one] | IC50 [1, 7]: < 0.1 µM; IC50 [2, 8]: > 10 µM |
| – | – | – | – | COc1cc2c(cc1Nc1ncc(Cl)c(N[C@H]3[C@@H](C(N)=O)[C@@H]4C=C[C@H]3C4)n1)CCN(CC(=O)N1CCCC1)CC2 [Example 1159, (1S,2S,3R,4R)-3-{5-Chloro-2-[8-methoxy-3-(2-oxo-2-pyrrolidin-1-yl-ethyl)-2,3,4,5-tetrahydro-1H-benzo[d]azepin-7-ylamino]-pyrimidin-4-ylamino}-bicyclo[2.2.1]hept-5-ene-2-carboxylic acid amide] | IC50 [1, 7]: < 0.1 µM; IC50 [2, 8]: > 10 µM |
| – | – | < 0.1 µM | 0.1 to 1 µM | CCN1CCc2ccc(Nc3ncc(Cl)c(Nc4cccc(OCC#N)c4)n3)cc2CC1 [Example 927, {3-[5-Chloro-2-(3-ethyl-2,3,4,5-tetrahydro-1H-benzo[d]azepin-7-ylamino)-pyrimidin-4-ylamino]-phenoxy}-acetonitrile] | – |

| Molecule | IC50 [1, 3] | IC50 [2, 4] | IC50 [1, 5] | IC50 [2, 6] | also measured |
| --- | --- | --- | --- | --- | --- |
| N-((1R,2R)-2-{5-Chloro-2-[7-(2,2-difluoro-ethylamino)-6,7,8,9-tetrahydro-5H-benzocyclohepten-2-ylamino]-pyrimidin-4-ylamino}-cyclohexyl)-methanesulfonamide [Example 675] | – | – | < 0.1 µM | > 10 µM | – |
